Numbers after ± are expanded uncertainties.
Assay: xn = mol fraction of the nth substance listed
Conditions: 298.2 K, 100 kPa, Liquid, Pycnometric method

Cc1ccc(-c2ncc(Cl)cc2-c2ccc(S(C)(=O)=O)cc2)cn1 [etoricoxib] + CC(O)CO
mass density (x1 = 0.06047): 1059.7 ± 1.3 kg/m3

Cc1ccc(-c2ncc(Cl)cc2-c2ccc(S(C)(=O)=O)cc2)cn1 [etoricoxib] + CO
mass density (x1 = 0.03786): 805 ± 0.9 kg/m3

Cc1ccc(-c2ncc(Cl)cc2-c2ccc(S(C)(=O)=O)cc2)cn1 [etoricoxib] + O
mass density (x1 = 1.58e-05): 994.8 ± 1 kg/m3

Cc1ccc(-c2ncc(Cl)cc2-c2ccc(S(C)(=O)=O)cc2)cn1 [etoricoxib] + OCC(O)CO
mass density (x1 = 0.05656): 1298 ± 1.6 kg/m3

Source: the NIST ThermoML archive (doi:10.1021/acs.jced.7b00709)
